Measurements reported in patent US8148391B2 (Cephalon, Inc., priority 2006, dated 2012).
Read-outs that look alike come from different tables or passages of the source.

Tests used:
[1] = target: T1, c-Met (cytoplasmic domain) (Homo sapiens, UniProt P08581); assay: c-Met Kinase Assay (same methods as for ALK, with modifications); type: biochemical
T1 construct: 10 ng/mL c-Met (cytoplasmic domain, Invitrogen Corporation #PV3143); purchased Invitrogen Corporation PV3143
Outline: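 Plates were coated with phospholipase C-γ substrate (10 μg/mL) in TBS, and the reaction was started with 10 ng/mL c-Met cytoplasmic domain and run 15 min at 37 °C. Phosphoproduct was detected with Eu-N1-labelled PT66 antibody. IC50 came from a variable-slope sigmoidal fit of percent inhibition vs log concentration.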

[2] = target: T2, baculovirus-expressed ALK (Homo sapiens, UniProt Q9UM73); assay: ALK Kinase Assay (ELISA-type, time-resolved fluorescence); type: biochemical
T2 construct: host or cells: baculovirus expression system
T2 sequence (Q9UM73 19-1620): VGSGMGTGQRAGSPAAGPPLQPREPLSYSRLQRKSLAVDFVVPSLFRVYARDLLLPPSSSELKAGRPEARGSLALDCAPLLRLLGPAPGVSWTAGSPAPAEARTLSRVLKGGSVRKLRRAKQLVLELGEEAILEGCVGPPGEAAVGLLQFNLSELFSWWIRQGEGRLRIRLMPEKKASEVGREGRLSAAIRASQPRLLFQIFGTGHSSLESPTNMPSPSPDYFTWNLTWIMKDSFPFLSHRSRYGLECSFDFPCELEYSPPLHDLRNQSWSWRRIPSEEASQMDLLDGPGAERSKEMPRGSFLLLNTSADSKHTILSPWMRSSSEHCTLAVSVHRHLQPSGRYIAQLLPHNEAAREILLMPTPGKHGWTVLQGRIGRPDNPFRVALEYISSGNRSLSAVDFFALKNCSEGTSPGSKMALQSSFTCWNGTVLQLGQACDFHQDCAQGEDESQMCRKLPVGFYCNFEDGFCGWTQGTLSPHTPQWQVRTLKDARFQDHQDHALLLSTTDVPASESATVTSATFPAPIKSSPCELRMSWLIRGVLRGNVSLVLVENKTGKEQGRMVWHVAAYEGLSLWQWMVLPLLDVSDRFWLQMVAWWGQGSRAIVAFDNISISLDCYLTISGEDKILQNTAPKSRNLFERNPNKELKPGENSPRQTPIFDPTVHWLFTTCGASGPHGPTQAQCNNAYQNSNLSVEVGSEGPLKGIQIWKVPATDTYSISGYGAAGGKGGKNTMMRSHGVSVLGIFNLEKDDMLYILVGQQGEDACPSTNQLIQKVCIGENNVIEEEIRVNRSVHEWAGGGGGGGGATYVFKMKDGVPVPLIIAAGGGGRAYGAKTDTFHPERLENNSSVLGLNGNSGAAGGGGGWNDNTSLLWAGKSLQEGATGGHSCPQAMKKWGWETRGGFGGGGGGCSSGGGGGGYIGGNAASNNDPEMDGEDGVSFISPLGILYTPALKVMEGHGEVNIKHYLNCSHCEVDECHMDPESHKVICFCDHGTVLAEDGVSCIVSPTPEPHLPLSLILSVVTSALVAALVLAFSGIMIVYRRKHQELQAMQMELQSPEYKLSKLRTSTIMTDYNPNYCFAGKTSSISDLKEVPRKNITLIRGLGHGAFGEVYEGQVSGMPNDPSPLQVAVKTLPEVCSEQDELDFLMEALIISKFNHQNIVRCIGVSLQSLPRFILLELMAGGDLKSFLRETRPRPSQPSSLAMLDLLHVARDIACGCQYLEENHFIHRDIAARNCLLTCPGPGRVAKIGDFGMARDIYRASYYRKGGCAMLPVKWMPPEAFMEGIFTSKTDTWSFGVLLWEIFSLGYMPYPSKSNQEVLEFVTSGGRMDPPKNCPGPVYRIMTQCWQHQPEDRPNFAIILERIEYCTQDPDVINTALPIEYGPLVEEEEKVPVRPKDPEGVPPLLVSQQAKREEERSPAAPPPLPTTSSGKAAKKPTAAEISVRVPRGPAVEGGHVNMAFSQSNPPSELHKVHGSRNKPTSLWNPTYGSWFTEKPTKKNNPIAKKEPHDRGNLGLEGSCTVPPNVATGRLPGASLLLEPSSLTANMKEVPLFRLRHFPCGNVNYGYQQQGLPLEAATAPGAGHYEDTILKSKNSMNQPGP
Outline: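 Plates coated with phospholipase C-γ substrate (10 μg/mL in TBS); reaction started with 30 ng/ml ALK and run 15 min at 37° C. Phosphorylated substrate detected with Eu-N1-labeled PT66 antibody. IC50 from sigmoidal variable-slope fit of percent inhibition vs log concentration.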

[3] = c-Met kinase inhibition, 1 μM ATP, read-out: cMet Activity
[4] = ALK kinase inhibition, 1 μM ATP, read-out: ALK Activity
[5] = 1 μM ATP (Km level), read-out: cMet Activity (c-Met Kinase Inhibition, IC50)
[6] = 1 μM ATP (Km level), read-out: ALK Activity (ALK Kinase Inhibition, IC50)
[7] = 1 μM ATP (Km level), 10 ng/mL c-Met, read-out: cMet Activity (c-Met kinase inhibition, IC50 class)
[8] = 1 μM ATP (Km level), 30 ng/ml ALK, 37° C., 15 minutes, read-out: ALK Activity (ALK kinase inhibition, IC50 class)
[9] = c-Met kinase inhibition, 1 μM ATP (Km level), read-out: cMet Activity
[10] = ALK kinase inhibition, 1 μM ATP (Km level), read-out: ALK Activity

T1 sequence (P08581 956-1390 limits assumed): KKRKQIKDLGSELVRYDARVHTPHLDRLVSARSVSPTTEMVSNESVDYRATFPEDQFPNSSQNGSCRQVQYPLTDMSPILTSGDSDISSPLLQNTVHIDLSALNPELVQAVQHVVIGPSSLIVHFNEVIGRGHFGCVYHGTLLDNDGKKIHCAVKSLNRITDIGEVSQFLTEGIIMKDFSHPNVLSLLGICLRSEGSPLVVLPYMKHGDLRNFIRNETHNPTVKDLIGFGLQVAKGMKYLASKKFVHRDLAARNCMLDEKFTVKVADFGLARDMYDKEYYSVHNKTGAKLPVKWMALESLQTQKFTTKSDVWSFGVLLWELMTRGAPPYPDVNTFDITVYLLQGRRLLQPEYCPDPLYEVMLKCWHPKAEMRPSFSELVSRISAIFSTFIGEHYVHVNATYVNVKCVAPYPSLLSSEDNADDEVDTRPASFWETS

| IC50 [1, 5] [nM] | IC50 [2, 6] [nM] | IC50 [1, 7] [nM] | IC50 [2, 8] [nM] | SMILES | further results |
| --- | --- | --- | --- | --- | --- |
| – | – | > 10000 | < 100 | CCN1CCc2cc(Nc3ncc(Cl)c(Nc4ccc(N5CCOCC5)cc4OC)n3)c(OC)cc2CC1 [Example 1129, 5-Chloro-N*2*-(3-ethyl-8-methoxy-2,3,4,5-tetrahydro-1H-benzo[d]azepin-7-yl)-N*4*-(2-methoxy-4-morpholin-4-yl-phenyl)-pyrimidine-2,4-diamine] | – |
| – | – | 100 to 1000 | < 100 | COCCN1CCc2ccc(Nc3ncc(Cl)c(Nc4ccccc4Cl)n3)cc2CC1 [Example 1376, 5-Chloro-N(4)-(2-chloro-phenyl)-N(2)-[3-(2-methoxy-ethyl)-2,3,4,5-tetrahydro-1H-benzo[d]azepin-7-yl]-pyrimidine-2,4-diamine] | – |
| > 10000 | < 100 | – | – | COc1cc2c(cc1Nc1ncc(Cl)c(Nc3ccc(C)cc3S(=O)(=O)N(C)C)n1)CCN(CC(=O)N(C)C)CC2 [Example 830, 2-{7-[5-Chloro-4-(2-dimethylsulfamoyl-4-methyl-phenylamino)-pyrimidin-2-ylamino]-8-methoxy-1,2,4,5-tetrahydro-benzo[d]azepin-3-yl}-N,N-dimethyl-acetamide] | – |
| – | – | 1000 to 10000 | 100 to 1000 | COCCN1CCc2ccc(Nc3ncc(Cl)c(Nc4c(F)cccc4OCCCOCc4ccccc4)n3)cc2CC1 [Example 1284, N(4)-[2-(3-Benzyloxy-propoxy)-6-fluoro-phenyl]-5-chloro-N(2)-[3-(2-methoxy-ethyl)-2,3,4,5-tetrahydro-1H-3-benzazepin-7-yl]-pyrimidine-2,4-diamine] | – |
| > 10000 | < 100 | – | – | COc1cc2c(cc1Nc1ncc(Cl)c(Nc3ccc(N4CCOCC4)cc3C)n1)CCN(CC(=O)N(C)C)CC2 [Example 801, 2-{7-[5-Chloro-4-(2-methyl-4-morpholin-4-yl-phenylamino)-pyrimidin-2-ylamino]-8-methoxy-1,2,4,5-tetrahydro-benzo[d]azepin-3-yl}-N,N-dimethyl-acetamide] | – |
| 100 to 1000 | 100 to 1000 | – | – | COCCN1CCc2ccc(Nc3ncc(Cl)c(Nc4ccccc4-c4nnc(C)s4)n3)cc2CC1 [Example 974, 5-Chloro-N*2*-[3-(2-methoxy-ethyl)-2,3,4,5-tetrahydro-1H-benzo[d]azepin-7-yl]-N*4*-[2-(5-methyl-[1,3,4]thiadiazol-2-yl)-phenyl]-pyrimidine-2,4-diamine] | – |
| – | – | < 100 | < 100 | CC1(C)CCC(=O)Nc2cc(Nc3ncc(Cl)c(Nc4ccccc4OCCC#N)n3)ccc21 [Example 1238, 3-{2-[5-Chloro-2-(5,5-dimethyl-2-oxo-2,3,4,5-tetrahydro-1H-1-benzazepin-8-ylamino)-pyrimidin-4-ylamino]-phenoxy}-propionitrile] | – |

The next lines start with the compound.

| SMILES | IC50 [1, 5] [nM] | IC50 [2, 6] [nM] | IC50 [1, 7] [nM] | IC50 [2, 8] [nM] | further results |
| --- | --- | --- | --- | --- | --- |
| CCN1CCNc2cc(Nc3ncc(Cl)c(Nc4c(F)cccc4C(=O)NC)n3)ccc2C1=O [Example 1454, 2-[5-Chloro-2-(4-ethyl-5-oxo-2,3,4,5-tetrahydro-1H-benzo[e][1,4]diazepin-8-ylamino)-pyrimidin-4-ylamino]-3-fluoro-N-methyl-benzamide] | – | – | – | – | IC50 [1, 3]: < 100 nM; IC50 [2, 4]: 100 to 1000 nM |
| CNC(=O)[C@@H]1[C@H](Nc2nc(Nc3ccc4c(c3)C(C)(C)CCC(=O)N4)ncc2Cl)[C@H]2C=C[C@@H]1C2 (relative stereo) [Example 620, (2-exo-3-exo)-3-[5-Chloro-2-(5,5-dimethyl-2-oxo-2,3,4,5-tetrahydro-1H-benzo[b]azepin-7-ylamino)-pyrimidin-4-ylamino]-bicyclo[2.2.1]hept-5-ene-2-carboxylic acid methylamide] | 100 to 1000 | < 100 | – | – | – |
| CCN1CCNC(=O)c2ccc(Nc3ncc(Cl)c(Nc4ccccc4OCCN4CCOCC4)n3)cc21 [Example 1455, 8-{5-Chloro-4-[2-(2-morpholin-4-yl-ethoxy)-phenylamino]-pyrimidin-2-ylaminol}-1-ethyl-1,2,3,4-tetrahydro-benzo[e][1,4]diazepin-5-one] | – | – | – | – | IC50 [1, 3]: > 10000 nM; IC50 [2, 4]: > 10000 nM |
| CCN1C(=O)CCCc2c1ccc(Nc1ncc(Cl)c(Nc3ccc(OC)cc3C(=O)NC)n1)c2OC [Example 607, 2-[5-Chloro-2-(1-ethyl-6-methoxy-2-oxo-2,3,4,5-tetrahydro-1H-benzo[b]azepin-7-ylamino)-pyrimidin-4-ylamino]-5-methoxy-N-methyl-benzamide] | 1000 to 10000 | < 100 | – | – | – |
| CCN1C(=O)C(NC(=O)C2CC2)CCc2c1ccc(Nc1ncc(Cl)c(Nc3ccccc3S(=O)(=O)N(C)C)n1)c2OC (stereo not shown) [Example 1359, Cyclopropanecarboxylic acid {7-[5-chloro-4-(2-dimethylsulfamoyl-phenylamino)-pyrimidin-2-ylamino]-1-ethyl-6-methoxy-2-oxo-2,3,4,5-tetrahydro-1H-benzo[b]azepin-3-yl}-amide] | – | – | > 10000 | < 100 | – |
| CCN1C(=O)OCCc2ccc(Nc3ncc(Cl)c(Nc4ccccc4C(=O)NC)n3)cc21 [Example 1881, 2-[5-Chloro-2-(5-ethyl-6-oxo-5,6,8,9-tetrahydro-7-oxa-5-aza-benzocyclohepten-3-ylamino)-pyrimidin-4-ylamino]-N-methyl-benzamide] | – | – | – | – | IC50 [1, 9]: 100 to 1000 nM; IC50 [2, 10]: 100 to 1000 nM |
| CNC(=O)c1ccccc1Nc1nc(Nc2ccc3c(c2)N(C)CCN(C)C3=O)ncc1Cl [Example 413, 2-[5-Chloro-2-(1,4-dimethyl-5-oxo-2,3,4,5-tetrahydro-1H-benzo[e][1,4]diazepin-8-ylamino)-pyrimidin-4-ylamino]-N-methylbenzamide] | – | – | – | – | IC50 [1, 9]: < 100 nM; IC50 [2, 10]: < 100 nM |
| CNC(=O)c1sc(Cl)c(C)c1Nc1nc(Nc2ccc3c(c2)CCOC(=O)N3C)ncc1Cl [Example 1770, 5-Chloro-3-[5-chloro-2-(5-methyl-6-oxo-5,6,8,9-tetrahydro-7-oxa-5-aza-benzocyclohepten-2-ylamino)-pyrimidin-4-ylamino]-4-methyl-thiophene-2-carboxylic acid methylamide] | – | – | – | – | IC50 [1, 3]: < 100 nM; IC50 [2, 4]: 100 to 1000 nM |
| CC(=O)N(C)Cc1ccccc1Nc1nc(Nc2ccc3c(c2)CCOC(=O)N3C)ncc1Cl [Example 1792, N-{2-[5-Chloro-2-(5-methyl-6-oxo-5,6,8,9-tetrahydro-7-oxa-5-aza-benzocyclohepten-2-ylamino)-pyrimidin-4-ylamino]-benzyl}-N-methyl-acetamide] | – | – | – | – | IC50 [1, 3]: 1000 to 10000 nM; IC50 [2, 4]: 1000 to 10000 nM |
| COc1cc2c(cc1Nc1ncc(Cl)c(N[C@@H]3CCCC[C@H]3NS(C)(=O)=O)n1)CCC(NCCO)CC2 (single isomer, unassigned) [Example 1095] | – | – | > 10000 | < 100 | – |
| COc1ccc2c(c1Nc1ncc(Cl)c(Nc3ccccc3S(=O)(=O)N(C)C)n1)CCC(N1CCOCC1)CC2 (stereo not shown) [Example 1072, 2-[5-Chloro-2-(2-methoxy-7-morpholin-4-yl-6,7,8,9-tetrahydro-5H-benzocyclohepten-1-ylamino)-pyrimidin-4-ylamino]-N,N-dimethyl-benzenesulfonamide] | – | – | > 10000 | 100 to 1000 | – |
| COc1cc2c(cc1Nc1ncc(Cl)c(Nc3ccccc3S(=O)(=O)N(C)C)n1)CCN(CC(C)O)CC2 (stereo not shown) [Example 1547, 2-{5-Chloro-2-[3-(2-hydroxy-propyl)-8-methoxy-2,3,4,5-tetrahydro-1H-3-benzazepin-7-ylamino]-pyrimidin-4-ylamino}-N,N-dimethyl-benzenesulfonamide] | – | – | – | – | IC50 [1, 3]: 1000 to 10000 nM; IC50 [2, 4]: < 100 nM |
| CNC(=O)CN1CCc2cc(Nc3ncc(F)c(Nc4ccc(N5CCN(C)CC5)cc4OC)n3)c(OC)cc2CC1 [Example 797, 2-(7-{5-Fluoro-4-[2-methoxy-4-(4-methyl-piperazin-1-yl)-phenylamino]-pyrimidin-2-ylamino}-8-methoxy-1,2,4,5-tetrahydro-benzo[d]azepin-3-yl)-N-methyl-acetamide] | > 10000 | < 100 | – | – | – |
| COCCOC(=O)c1ccccc1Nc1nc(Nc2cc3c(cc2OC)CCN(CC(C)O)CC3)ncc1Cl (stereo not shown) [Example 1550, 2-{5-Chloro-2-[3-(2-hydroxy-propyl)-8-methoxy-2,3,4,5-tetrahydro-1H-3-benzazepin-7-ylamino]-pyrimidin-4-ylamino}-benzoic acid 2-methoxy-ethyl ester] | – | – | – | – | IC50 [1, 3]: > 10000 nM; IC50 [2, 4]: < 100 nM |
| COc1c(Nc2ncc(Cl)c(Nc3ccccc3S(=O)(=O)N3CCC(O)C3)n2)ccc2c1CCC(N1CCOCC1)CC2 (mixture of isomers) [Example 906, 1-{2-[5-Chloro-2-(1-methoxy-7-morpholin-4-yl-6,7,8,9-tetrahydro-5H-benzocyclohepten-2-ylamino)-pyrimidin-4-ylamino]-benzenesulfonyl}-pyrrolidin-3-ol] | 1000 to 10000 | < 100 | – | – | – |
| COc1cc2c(cc1Nc1ncc(Cl)c(N[C@@H]3CCCC[C@H]3NS(C)(=O)=O)n1)CCN(CC(C)(F)F)CC2 [Example 784, N-((1R,2R)-2-{5-Chloro-2-[3-(2,2-difluoro-propyl)-8-methoxy-2,3,4,5-tetrahydro-1H-benzo[d]azepin-7-ylamino]-pyrimidin-4-ylamino}-cyclohexyl)-methanesulfonamide] | > 10000 | < 100 | – | – | – |
